Experimental data from patent US11135228B2, “Cysteinyl-proresolving mediators that promote resolution of infection and organ protection” (THE BRIGHAM AND WOMEN'S HOSPITAL, priority 2014, dated 2021).
“Also recorded” adds a separate entry of the source.

Tests used:
E. coli = test: Murine E. coli peritonitis: leukocyte counts, resolution indices, in vivo phagocytosis; parameters: species or system mouse; conditions: for leukocyte phagocytosis of E. coli in vivo: co-administration of SCI and SCII 50 ng each, i.p.; for resolution of infections in mice: co-administration of equal amounts of SCI and SCII
Description: Murine Peritonitis: Mouse experiments were conducted in accordance with guidelines from Harvard Medical Area Standing Committee on Animals (protocol no. 02570). Mice were inoculated with E. coli (serotype 06:K2:H1) as in (11) and peritoneal exudates were collected by lavaging the peritoneal cavity with 4 ml of PBS (without calcium and magnesium) at the indicated intervals. Leukocytes were enumerated by light microscopy using nuclear morphology staining with Turks solution and flow cytometry probing for CD11b-PerCP/Cy5.5 (eBioscience, clone: M1/70), F4/80-PE (eBioscience, BM8) and Ly6G-FITC (eBioscience, clone: 1A8) as in (11). For product isolation, 24 h peritoneal exudates were collected and 2 volumes of ice-cold methanol were added. Isolates were obtained as detailed in the lipid mediator metabotolipidomics section.
In select experiments 12 h after E. coli inoculation, mice were administered either 100 ng of SCI and SCII (50 ng/each per mouse) or vehicle (saline containing 0.1% ethanol (EtOH)) via i.p. injection. Peritoneal exudates were then collected and leukocyte counts determined as above. Assessment of leukocyte phagocytosis of E. coli in inflammatory exudates was conducted as in (11). Briefly cells were incubated with anti-CD11b-Per(T/Cy5.5 conjugated antibody; subsequently the cells were permeabilized using BD Cytofix/Cytoperm™ Fixation/Permeabilization Kit following manufacturer's instructions; cells were then incubated with a FITC conjugated anti-E. coli antibody (GTX40856; GeneTex) and phagocytosis assessed as mean fluorescence in the CD11b- positive cell population.
Resolution indices were calculated as in (11) where Ψmax=the maximal PMN numbers in the exudates; Tmax=the time point when PMN numbers reach maximum; R50=50% of maximal PMN numbers; T50=the time point when PMN numbers reduce to 50% of maximum; Ri (resolution interval)=T50−Tmax, the time period when 50% PMN are lost from the exudates.

Human macrophages [1] = test: Human macrophage efferocytosis of apoptotic PMN; assay type: cell-based; conditions: 10 pM-100 nM, 15 min, then apoptotic PMN 45 min; planarian isolates likewise
Description: (§1) Leukocyte phagocytosis: Macrophages were prepared from peripheral blood mononuclear cells (PBMC) purchased from Children's Hospital Blood Bank, Boston, and phagocytosis was assessed as in (11). Briefly, macrophages (5×10^4 cells,/well) were incubated with SCI (10 pM-100 nM), SCII (10 pM-100 nM), MaR1 (10 pM-100 nM), or vehicle (0.1% EtOH in DPBS) for 15 min at 37° C., then fluorescent labeled apoptotic cells were added and cells incubated 45 min at 37° C. Extracellular fluorescence was quenched using Trypan blue (1:15 dilution) and phagocytosis assessed using an M3 SpectraMax plate reader. In select experiments, macrophages (5×10^4 cells/well) or neutrophils (1×10^5 cells/well) were obtained from human healthy volunteers' peripheral blood as in (11) in accordance with Partners Human Research Committee Protocol (#1999P001297), and incubated with H2DCFDA (5 μM, 30 min, 37° C.), then with SCI (10 pM-100 nM), SCI (10 pM-100 nM) or vehicle (0.1% EtOH in DPBS, 15 min, 37° C.) and E. coli (1:50 leukocytes to E. coli, 45 min, 37° C.) Intracellular reactive oxygen species were determined by measuring fluorescence using an M3 SpectraMax plate reader. To assess bacterial phagocytosis, macrophages (5×10^4 cells/well) or neutrophils (1×10^5 cells/well) were incubated with SCI (10 pM-100 nM), SCII (10 pM-100 nM) or vehicle (0.1% EtOH in DPBS, 15 min, 37° C.), then incubated with BacLight Green (Molecular Probes) labeled E. coli (1:50 leukocytes to E. coli, 45 min, 37° C.), Extracellular fluorescence was quenched using Trypan blue (1:15 dilution), and phagocytosis assessed using an M3 SpectraMax plate reader.
In determined experiments, human macrophages were incubated with SC isolates from regenerating planaria for 15 min at 37° C., then fluorescent labeled apoptotic cells were added and efferocytosis was assessed as detailed above.
Macrophage bacterial phagocytosis, efferocytosis, and phagolysosontal acidification: Human macrophages were plated in 96-well plates (5×10^4 cells per well) for 24 h, and phagocytosis or efferocytosis was assessed as in (14). In brief, apoptotic PMNs were obtained by culturing cells overnight in PBS^−/− (5×10^6 cells/ml). Apoptotic human PMNs were labeled with bisbenzimide H33342 trihydrochloride (Sigma-Aldrich). Human macrophages were incubated with 0.1-10 nM concentration of test products, and then labeled apoptotic PMNs were cocultured with macrophages for 40 min [37° C. […]]. Fluorescence was read on a SpectraMax M3 plate reader (Molecular Devices, Sunnyvale, Calif., USA), and results were analyzed using SoftMax Pro (Molecular Devices).

Human neutrophils [2] = test: Human neutrophil intracellular reactive oxygen species (H2DCFDA); assay type: cell-based; conditions: 10 pM-100 nM, 15 min, then E. coli 45 min
Description: as §1, with “To assess bacterial phagocytosis, macrophages (5×10^4 cells/well) or neutrophils (1×10^5 cells/well) were incubated with SCI (10 pM-100 nM), SCII (10 pM-100 nM) or vehicle (0.1% EtOH in DPBS, 15 min, 37° C.), then incubated with BacLight Green (Molecular Probes) labeled E. coli (1:50 leukocytes to E. coli, 45 min, 37° C.), Extracellular fluorescence was quenched using Trypan blue (1:15 dilution), and phagocytosis assessed using an M3 SpectraMax plate reader.” left out

Human macrophages [3] = test: Human macrophage phagocytosis of fluorescently labeled E. coli; assay type: cell-based; conditions: 10 pM-100 nM, 15 min, then E. coli 45 min
Description: as §1
Macrophage phagocytosis was assessed using fluorescently labeled E. coli (serotype O6:K2;H1) with BacLight Green Bacterial Stain (Life Technologies, Eugene, Oreg., USA). E. coli [2.5×10^6 colony-forming units (CFL)/well] were then added to macrophages previously plated in 96-well plates (40 min at 37° C.) and incubated with 0.1-10 nM concentration of test compounds [15 min at 37° C. (pH 7.45)]. Fluorescence was measured on a SpectraMax M3 plate reader, and results were analyzed using SoftMax Pro.

Human neutrophils [4] = test: Human neutrophil phagocytosis of fluorescently labeled E. coli; assay type: cell-based; conditions: 10 pM-100 nM, 15 min, then E. coli 45 min
Description: as §1, with “To assess bacterial phagocytosis, macrophages (5×10^4 cells/well) or neutrophils (1×10^5 cells/well) were incubated with SCI (10 pM-100 nM), SCII (10 pM-100 nM) or vehicle (0.1% EtOH in DPBS, 15 min, 37° C.), then incubated with BacLight Green (Molecular Probes) labeled E. coli (1:50 leukocytes to E. coli, 45 min, 37° C.), Extracellular fluorescence was quenched using Trypan blue (1:15 dilution), and phagocytosis assessed using an M3 SpectraMax plate reader.” left out

Human macrophages [5] = test: Human macrophage intracellular reactive oxygen species (H2DCFDA); assay type: cell-based; conditions: 10 pM-100 nM, 15 min, then E. coli 45 min
Description: as §1, with “To assess bacterial phagocytosis, macrophages (5×10^4 cells/well) or neutrophils (1×10^5 cells/well) were incubated with SCI (10 pM-100 nM), SCII (10 pM-100 nM) or vehicle (0.1% EtOH in DPBS, 15 min, 37° C.), then incubated with BacLight Green (Molecular Probes) labeled E. coli (1:50 leukocytes to E. coli, 45 min, 37° C.), Extracellular fluorescence was quenched using Trypan blue (1:15 dilution), and phagocytosis assessed using an M3 SpectraMax plate reader.” left out

Row | Molecule | leukocyte phagocytosis of E. coli in vivo (E. coli) | resolution of infections in mice (E. coli) | macrophage efferocytosis of apoptotic cells (Human macrophages [1]) | neutrophil intracellular reactive oxygen species (Human neutrophils [2]) | macrophage phagocytosis of E. coli (Human macrophages [3]) | neutrophil phagocytosis of E. coli (Human neutrophils [4]) | macrophage intracellular reactive oxygen species (Human macrophages [5])
1 | 13-glutathionyl, 14-hydroxy-docosahexaenoic acid [SCI] | Stimulates mouse | Promotes resolution of | dose-dependently increased; also recorded: Stimulates human | enhanced; also recorded: Stimulates human | enhanced; also recorded: Stimulates human | enhanced; also recorded: Stimulates human | enhanced; also recorded: Stimulates human
2 | CCC=CCC=CCC(O)C(C=CC=CC=CCC=CCCC(=O)O)SCC(N)C(=O)NCC(=O)O (centres unmarked) [SCII, 13-cysteinylglycinyl, 14-hydroxy-docosahexaenoic acid] | Stimulates mouse | Promotes resolution of | dose-dependently increased; also recorded: Stimulates human | enhanced | enhanced; also recorded: Stimulates human | enhanced; also recorded: Stimulates human | enhanced
